Reference: patent US20240390526A1, “NEAR-INFRARED FLUORESCENT DYE-LOADED POLYMER MICROSPHERES FOR LABELLING LESIONS, AND FORMULATION THEREOF” (National Cancer Center, priority 2022, published 2024)

Test: Fluorescence spectrum / intensity of dye solutions, dye complexes and microsphere dispersions (multi-function microplate reader, λex=730 nm)
Format: physicochemical
Settings: aqueous solution
Protocol: 0.5 mg of indocyanine green (Dianogreen Injection) (ICG, Jeil Pharmaceutical Co., Ltd.) as a near-infrared fluorescent dye was dissolved in 1 mL of distilled water, and then diluted with distilled water to prepare an indocyanine green solution at a concentration of 30 μM. For the indocyanine green/human serum albumin (HSA, SK Plasma) complex for comparison of fluorescence signals with the indocyanine green solution, 0.5 mg of indocyanine green powder was dissolved in a mixed solution of 0.214 mL of human serum albumin solution (20% concentration) and 0.786 mL of distilled water, and then diluted with distilled water to prepare an indocyanine green/human serum albumin complex (ICG-HSA) at a concentration of 30 μM. To compare fluorescence spectra, 200 μL of each prepared solution was aliquoted and placed in a 96-well plate, and the fluorescence spectrum (λex=730 nm) was measured using a multi-function microplate reader (SPARK, Tecan Trading AG, Zurich, Switzerland).
(§1) To compare fluorescence signals of the prepared the microspheres and the indocyanine green/human serum albumin complex, the same concentration of indocyanxhine green complex solution and dispersion of microparticles were prepared. […] Using the information on the content of indocyanine green in PLGA microspheres evaluated by the quantification, a dispersion was prepared by adding indocyanine green to 0.3 mL of distilled water so that the concentration was 30 μM. To compare fluorescence spectra, 200 μL of each of the prepared solution and dispersion was aliquoted and placed in a 96-well plate, and the fluorescence spectrum (λex=730 nm) was measured using a multi-function microplate reader (SPARK, Tecan Trading AG, Zurich, Switzerland).
as §1, with “To compare the fluorescence signals” for “To compare fluorescence signals”, “the prepared microspheres and” for “the prepared the microspheres and”, “multi-function microplate reader. Fluorescence images were analyzed using fluorescence imaging equipment (IVIS Lumina XR, Xenogen Corporation-Caliper, CA, USA) after putting 300μl of the same solution into a microtube (λex=780/20 nm, λem=845/40 nm). […]” for “multi-function microplate reader (SPARK, Tecan Trading AG, Zurich, Switzerland).”

Row | emission peak [nm] | Molecule
1 | 810 | C[N+]1=C(C=CC2=CC(=CC=C3N(CCCCCC(=O)[O-])c4ccc5c(S(=O)(=O)[O-])cc(S(=O)(=O)[O-])cc5c4C3(C)C)CCC2)C(C)(C)c2c1ccc1c(S(=O)(=O)O)cc(S(=O)(=O)[O-])cc21.[K+].[K+].[K+] [Cy7.5, sulfo-cyanine7.5 carboxylic acid]
2 | 806 | CC1(C)C(/C=C/C2=C(Oc3ccc(S(=O)(=O)O)cc3)C(=C/C=C3/N(CCCCS(=O)(=O)O)c4ccc(S(=O)(=O)[O-])cc4C3(C)C)/CCC2)=[N+](CCCCCC(=O)O)c2ccc(S(=O)(=O)O)cc21 [IRDye 800CW, IRDye® 800CW carboxylate]
3 | 780 | C[N+]1=C(C=CC2=CC(=CC=C3N(CCCCCC(=O)O)c4ccc(S(=O)(=O)[O-])cc4C3(C)C)CCC2)C(C)(C)c2cc(S(=O)(=O)[O-])ccc21.[K+] [Cy7, sulfo-cyanine7 carboxylic acid]
4 | 812 | Flamma774 carboxylic acid
